In patent US12435380B2, “Compositions and methods for the diagnosis and treatment of ALT cancer” (Texas Tech University System, priority 2018, dated 2025):
“Also recorded” adds a separate entry of the source.

Legend:
[1] = system: p21 and NOXA; assay: Immunoblots of apoptotic proteins after PRIMA-1MET; format: cell-based, human; details: TP53-mutated, 20 uM, 6, 12 and 24 hours
Method: FIGS. 5A and 5B are quantitative representations of immunoblots of apoptotic proteins with three ALT+ cell lines and two TERT+ lines. All cell lines were treated with 20 uM of PRIMA-1MET for 6, 12 and 24 hours. All cell lines were known to have TP53-inactivating mutations. […] We hypothesize this is due to the constitutive activation of ATM in ALT positive cell lines, which will trigger senescence and apoptosis once PRIMA-1MET refolds mutant TP53.

[2] = system: ALT+ neuroblastoma cell lines; assay: DIMSCAN cytotoxicity, neuroblastoma cell lines; format: cell-based, human
Method: FIG. 6 is a graph of survival fraction versus PRIMA-1MET concentration and illustrates high cytotoxicity of PRIMA-1MET in ALT+ versus TERT+(ALT negative) NB cell lines. FIG. 6 illustrates NB 5% O2. PRIMA-1MET dose response curves were analyzed using the DIMSCAN cytotoxicity assay system in 4 ALT+ neuroblastoma cell lines compared to 3 non-ALT, but TP53-mut cell lines.
FIGS. 7A and 7B are graphs of survival fraction versus PRIMA-1MET concentration and illustrate cytotoxicity of PRIMA-1MET in ALT+NB cell lines as enhanced by hypoxia. PRIMA-1MET cytotoxicity was assessed for 3 ALT neuroblastoma cell lines in ambient air culture conditions (20% O2) compared with bone marrow level hypoxia (5% O2).

[3] = system: ALT rhabdomyosarcoma cell lines; assay: DIMSCAN cytotoxicity, rhabdomyosarcoma cell lines; format: cell-based, human; details: 5% O2
Method: FIGS. 8A and 8B are graphs of survival fraction versus PRIMA-1MET concentration and illustrate Cytotoxicity of PRIMA-1MET in ALT vs TERT+ Rhabdomyosarcoma. FIG. 8A illustrates ALT+ rhabdomyosarcoma grown in 5% O2 and FIG. 8B illustrates TERT+ rhabdomyosarcoma grown in 5% O2. Cytotoxicity of PRIMA-1MET was assessed for ALT and non-ALT (TERT+) rhabdomyosarcoma cell lines using DIMSCAN.

[4] = system: ALT lymphoma cell lines TX-LY-064hnb, TX-LY-245h, COG-LY-357h; assay: DIMSCAN cytotoxicity, lymphoma cell lines; format: cell-based, human; details: vs TERT+ lines SUP-TI and COG-LY-459, 5% O2, p53 dysfunction
From the text: FIGS. 9A and 9B are graphs of survival fraction versus PRIMA-1MET concentration for ALT+p53 non-functional lymphoma 5% O2 and TERT+p53 non-functional lymphoma 5% O2, respectively. […] All lines had some form of p53 dysfunction.

[5] = system: ALT+ p53 non-functional adult cell lines; assay: Cytotoxicity, ALT+ adult cell lines; format: cell-based, human; details: 5% O2
From the text: FIG. 10 is a graph of survival fraction versus PRIMA-1MET concentration for ALT+ adult cell lines showing the high activity of PRIMA1MET against ALT breast cancer, colorectal cancer, ovarian cancer, lung cancer, and leiomyosarcoma cell lines;
FIG. 10 is a graph of survival fraction versus PRIMA-1MET concentration for ALT+p53 non-functional adult cell lines 5% O2. All lines had some form of p53 dysfunction.

[6] = system: ALT cell lines from various histologies; assay: Summary of cytotoxicity (IC50/IC90), ALT vs non-ALT cell lines of all histologies; format: cell-based, human
From the text: […] are graphs of PRIMA-1MET cytotoxicity of ALT vs non-ALT cell lines and illustrate PRIMA-1MET IC50/IC90 for all tested cancers. FIG. 8A illustrates IC50 20% O2, and FIG. 8B illustrates IC90 20% O2. IC50 5% O2, and IC90 5% O2 were also observed. Cytotoxicity data on all ALT cell lines from various histologies were compared with non-ALT cell lines of the same histologies, presented as inhibitory+cytotoxic concentrations for 50% (IC50) and 90% (IC90) of the cells.
FIGS. 11A and 11B are graphs showing cytotoxicity of ALT and non-ALT cell lines for IC50 and IC90. Cytotoxicity data on all ALT cell lines from various histologies compared with non-ALT cell lines of the same histologies. The data is presented as inhibitory+cytotoxic concentrations for 50% (IC50) and 90% (IC90) of the cells.

[7] = system: ALT neuroblastoma cell line CHLA-90; assay: PRIMA-1MET sensitivity after shRNA knockdown of ATM; format: cell-based, human
From the text: FIGS. 20A and 20B illustrate data for cell line CHLA-90. shRNA knockdown of ATM in the ALT neuroblastoma cell line CHLA-90 led to hyper-resistance to PRIMA-1MET. We hypothesize this is due to the loss of constitutive activation of ATM in ALT positive cell lines which would trigger senescence and apoptosis once PRIMA-1MET refolds mutant p53 in the presence of ATM.

[8] = system: ALT+ cell lines; assay: PRIMA-1MET IC50 with ATM or ATR kinase inhibitor, ALT+ lines; format: cell-based, human; details: with ATM kinase inhibitor (ATMi) or ATR kinase inhibitor (ATRi)
From the text: (§1) FIGS. 21A and 21B illustrate effect of inhibition of ATM or ATR kinase on sensitivity of ALT+vs TERT+(ALT-negative) using ATM kinase inhibitor (ATMi) or ATR kinase inhibitor (ATRi) ir ALT+ and TERT+ cell lines;
(§2) FIGS. 21A and 21B illustrate inhibition of kinase inhibitors for ALT+ and TERT+ cell lines Kinase Inhibitors antagonize PRIMA-1MET in ALT+ cell lines.

[9] = system: TERT+ cell lines; assay: PRIMA-1MET IC50 with ATM or ATR kinase inhibitor, TERT+ lines; format: cell-based, human; details: with ATM kinase inhibitor (ATMi) or ATR kinase inhibitor (ATRi)
From the text: as §1, §2

[10] = system: ALT+ neuroblastoma xenografts CHLA-90m and COG-N-669x; assay: ALT neuroblastoma xenografts, tumor volume; design: species or system athymic nude mice; details: mouse, in vivo
Method: FIGS. 22A and 22B are graphs tumor volume versus time for CHLA-90m and COG-N-669x. The neuroblastoma cell lines CHLA-90m and COG-N-669x were injected into athymic nude mice and drugged with PRIMA-1Met and BSO.

[11] = cited from earlier work
[12] = system: ALT neuroblastoma cell lines; assay: PRIMA-1 activity in neuroblastoma cell lines, ALT vs non-ALT; format: cell-based, human; details: ALT vs TP53-mutated non-ALT neuroblastoma cell lines
From the text: Neuroblastoma provides a unique cancer for studying the role of changes that lead to inactivation of p53, such as TP53 inactivating mutations. This is because, unlike many other cancers, neuroblastomas at diagnosis and before therapy most frequently are p53 functional and there is a very low incidence of TP53 mutations. However, the incidence of p53 loss-of-function (often by TP53 mutation) increases in progressive disease after therapy. Because PRIMA-1 was developed as a drug that could restore p53 function to tumors with TP53 mutations, we assessed the activity of PRIMA-1 in neuroblastoma cell lines. Our panel of neuroblastoma cell lines includes p53-functional cell lines and those that have p53 loss-of-function and lines with TP53 mutations. The panel includes cell lines with TP53 mutations that are telomerase-positive (high TERT expression) and also TERT-low ALT (C-circle-positive) cell lines.
We have determined that the C-circle assay (specific for ALT cancers) identifies cancers that are especially responsive to PRIMA-1. While PRIMA-1 and APR-246 are being developed to treat TP53-mutated caners, only a subset of the latter respond to the drug as shown in preclinical studies and in the early phase I clinical trials. […]

[13] = system: ALT cell lines; assay: PRIMA-1 activity in ALT cell lines from cancers other than neuroblastoma; format: cell-based, human; details: all ALT cell lines examined to date

COCC1(CO)C(=O)C2CCN1CC2 (stereo not drawn) [PRIMA-1MET]
NOXA expression ([1]; three ALT+ cell lines): NOXA expression during longer treatment | p21 expression ([1]; three ALT+ cell lines): substantial increase | NOXA expression ([1]; two non-ALT (TERT+) cell lines): very little increase | p21 expression ([1]; two non-ALT (TERT+) cell lines): very little increase | cytotoxicity in hypoxia vs ambient air ([2]; 3 ALT neuroblastoma cell lines, 5% O2 compared with 20% O2): even great cytotoxicity | sensitivity (survival fraction), ALT vs non-ALT neuroblastoma ([2]; 4 ALT+ vs 3 non-ALT TP53-mut cell lines, 5% O2): significantly more sensitive | sensitivity (survival fraction), ALT vs non-ALT rhabdomyosarcoma [3]: more sensitive | sensitivity (survival fraction), ALT vs TERT+ lymphoma [4]: more sensitive | activity against ALT breast, colorectal, ovarian, lung cancer and leiomyosarcoma cell lines [5]: high activity | sensitivity by IC50 and IC90, ALT vs non-ALT cell lines ([6]; all tested histologies): significantly more sensitive | ALT vs non-ALT difference in IC50/IC90 in hypoxia ([6]; bone marrow level hypoxia (5% O2) vs 20% O2): differences were greater | response to PRIMA-1MET after ATM knockdown [7]: hyper-resistance | change of IC50 with kinase inhibitors [8]: greatly increases | change of IC50 with kinase inhibitors [9]: little effect | tumor volume, single agent relative to control [10]: greater amount of activity | plasma levels ([11]; at the maximally tolerated dose, out to ~12 hours): > 10000 ng/mL | maximally tolerated dose ([11]; phase I, hematological malignancies and hormone-refractory prostate cancer): 60 μg/m^2 | bone marrow toxicity ([11]; phase I): not observed | most common adverse events ([11]; phase I): dizziness, headache, confusion, and other neurological complications

O=C1C2CCN(CC2)C1(CO)CO [PRIMA-1]
activity of PRIMA-1 in ALT vs non-ALT neuroblastoma [12]: significantly greater in ALT neuroblastoma cell lines; also recorded: significantly higher in ALT neuroblastoma | sensitivity of ALT cell lines to PRIMA-1 [13]: highly sensitive
